The source of these data is patent US12454530B2, “Amido cyclohexane acid derivatives as LPA receptor inhibitors” (CHIESI FARMACEUTICI S.P.A., priority 2020, dated 2025).

pIC50: −log10 of the molar value. Where two headings read alike, the source gives them in different places.

Data set [1] addresses human recombinant LPA1 expressed in CHO cells (Homo sapiens (Human), UniProt Q92633). In words: LPA1 antagonist FLIPR calcium assay in CHO-hLPA1 cells. Type of data set: cell-based. The protocol: The effectiveness of compounds of the present invention as LPA1 antagonists can be determined at the human recombinant LPA1 expressed in CHO cells, using a FLIPR assay in 384 well format.
CHO-hLPA1 cell lines are cultured in a humidified incubator at 5% CO2 in DMEM/F-12 (1:1) MIXTURE with 2 mM Glutamax, supplemented with 10% of Foetal Bovine Serum, 1 mM Sodium Pyruvate, 11 mM Hepes and 1× Penicillin/Streptomycin. […] Serial dilutions (1:3 or 1:4, 11 points CRC) of compounds are performed in 100% DMSO at 200× the final concentration. […] The final concentration of DMSO in the assay will be 0.5% in each well. Medium is removed by aspiration and cells are then incubated with 30 μl of a loading solution containing 5 μM of the cytoplasmic Ca2+ indicator Cal-520 AM in Assay Buffer containing 2.5 mM probenecid for 30 min at 37° C. incubator (cell loading). The loaded cell plates are transferred into the FLIPR instrument and calcium responses are monitored during the on-line addition protocols. For testing of compounds, after the cell loading, 10 μl/well of 4× antagonists' solution was added onto the cells. After 30 min pre-incubation (at 37° C.), 10 μl/well of 5× concentrated LPA EC80 was added and Ca2+ mobilization responses was followed during the on-line addition protocol. Intracellular peak fluorescence values subtracted by baseline fluorescence are exported and analysed to determine IC50 values, respectively. The calcium response is expressed as percentage of the maximal inhibition of the EC80 agonist response.
The raw data (peak height expressed as relative fluorescence units) are normalized and transformed into “percent of inhibition”. Curve fitting and pIC50 (−LogIC50) estimations are carried out using a four-parameter logistic model using XLfit Software.

A further data set has as its target BSEP (Homo sapiens (Human), UniProt O95342). The experiment in a line: BSEP inhibition: biliary clearance of Taurocolic Acid in sandwich-cultured human hepatocytes. The data set is classed as in vitro ADME. Conditions: 50 μM test compound, 10 μM TCA, human hepatocytes sandwich configuration; for inhibition at 10 min, 50 μM: sandwich-cultured cryopreserved human hepatocytes, probe Taurocolic Acid (TCA). As for the experimental part:
BSEP inhibition was evaluated using human hepatocytes cultured between two layer of collagen (sandwich configuration). In this culture condition, hepatocytes express relevant transporters including BSEP and retain the bile canalicular structure. An inhibition of the biliary clearance of Taurocolic Acid (TCA), a known BSEP substrate, was used to assess BSEP interaction.
BSEP inhibition was evaluated using cryopreserved human hepatocytes (Plateable Cryopreserved Human Hepatocytes, BIOIVT) cultured for 5 day between two layer of collagen (sandwich configuration). In this culture condition, hepatocytes express relevant transporters including BSEP and retain the bile canalicular structure.
On day 5 of culture, hepatic cells are ready for the assay and the biliary clearance of Taurocolic Acid (TCA), a known BSEP substrate, can be estimated in presence and in absence of compound of interest.
The sample solution was prepared dissolving test compound and TCA in DMSO and then diluted in the Assay Buffer: Hank's Balance Salt Solution (HBSS+) warmed at 37° C. before use, to give the 10 μM TCA working solution with and without 50 μM of test compound. Hepatocytes were incubated for 10 minutes with these working solutions allowing TCA to be excreted into bile. At the end of incubation, the working solution was aspirated, and the content of the bile was collected through the addition of HBSS Modified without Ca2+/Mg2+(HBSS−). The presence of Ca2+ in the buffer is required to maintain the integrity of the tight junctions, the diffusional barrier between the canalicular lumen and extracellular space. Instead, incubation of cells in Ca2+-free buffer disrupts the tight junctions and opens the bile canalicular structures, allowing the bile content to be released and collect for HPLC-MS/MS analysis.
The in vitro biliary clearance of TCA incubated with and without test compounds is calculated according to the following formula:
where • Acc. Bile=(TCA amount in HBSS (−) buffer samples (pmol/mg protein)*Volume of each samples (mL))/Protein content per well (mg) • AUC=Incubation time (min)*T0 Concentration. T0 concentration is the initial TCA concentration in the medium.
The inhibition of BSEP was calculated as percentage of inhibition of TCA biliary clearance in presence of compound of interest, according to the following formula: BSEP inhibition %=100−(TCA ClBil with test compound*100)
TCA ClBil without test compound.

[2] abbreviates: range of activity, CHO-hLPA1, LPA EC80, Ca2+ mobilization, read-out: LPA1 IC50.

human recombinant LPA1 expressed in CHO cells, sequence (Q92633 whole entry): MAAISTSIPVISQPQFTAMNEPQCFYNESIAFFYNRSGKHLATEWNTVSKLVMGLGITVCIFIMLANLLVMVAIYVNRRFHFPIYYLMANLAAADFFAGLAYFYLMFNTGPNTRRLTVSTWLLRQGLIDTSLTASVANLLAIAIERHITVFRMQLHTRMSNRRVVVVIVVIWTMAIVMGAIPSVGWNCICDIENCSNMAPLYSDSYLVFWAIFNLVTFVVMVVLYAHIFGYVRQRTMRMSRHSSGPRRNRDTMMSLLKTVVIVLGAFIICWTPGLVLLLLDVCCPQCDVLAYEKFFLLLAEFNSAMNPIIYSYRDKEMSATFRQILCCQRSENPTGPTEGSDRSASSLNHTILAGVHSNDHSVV
BSEP, sequence (O95342 whole entry): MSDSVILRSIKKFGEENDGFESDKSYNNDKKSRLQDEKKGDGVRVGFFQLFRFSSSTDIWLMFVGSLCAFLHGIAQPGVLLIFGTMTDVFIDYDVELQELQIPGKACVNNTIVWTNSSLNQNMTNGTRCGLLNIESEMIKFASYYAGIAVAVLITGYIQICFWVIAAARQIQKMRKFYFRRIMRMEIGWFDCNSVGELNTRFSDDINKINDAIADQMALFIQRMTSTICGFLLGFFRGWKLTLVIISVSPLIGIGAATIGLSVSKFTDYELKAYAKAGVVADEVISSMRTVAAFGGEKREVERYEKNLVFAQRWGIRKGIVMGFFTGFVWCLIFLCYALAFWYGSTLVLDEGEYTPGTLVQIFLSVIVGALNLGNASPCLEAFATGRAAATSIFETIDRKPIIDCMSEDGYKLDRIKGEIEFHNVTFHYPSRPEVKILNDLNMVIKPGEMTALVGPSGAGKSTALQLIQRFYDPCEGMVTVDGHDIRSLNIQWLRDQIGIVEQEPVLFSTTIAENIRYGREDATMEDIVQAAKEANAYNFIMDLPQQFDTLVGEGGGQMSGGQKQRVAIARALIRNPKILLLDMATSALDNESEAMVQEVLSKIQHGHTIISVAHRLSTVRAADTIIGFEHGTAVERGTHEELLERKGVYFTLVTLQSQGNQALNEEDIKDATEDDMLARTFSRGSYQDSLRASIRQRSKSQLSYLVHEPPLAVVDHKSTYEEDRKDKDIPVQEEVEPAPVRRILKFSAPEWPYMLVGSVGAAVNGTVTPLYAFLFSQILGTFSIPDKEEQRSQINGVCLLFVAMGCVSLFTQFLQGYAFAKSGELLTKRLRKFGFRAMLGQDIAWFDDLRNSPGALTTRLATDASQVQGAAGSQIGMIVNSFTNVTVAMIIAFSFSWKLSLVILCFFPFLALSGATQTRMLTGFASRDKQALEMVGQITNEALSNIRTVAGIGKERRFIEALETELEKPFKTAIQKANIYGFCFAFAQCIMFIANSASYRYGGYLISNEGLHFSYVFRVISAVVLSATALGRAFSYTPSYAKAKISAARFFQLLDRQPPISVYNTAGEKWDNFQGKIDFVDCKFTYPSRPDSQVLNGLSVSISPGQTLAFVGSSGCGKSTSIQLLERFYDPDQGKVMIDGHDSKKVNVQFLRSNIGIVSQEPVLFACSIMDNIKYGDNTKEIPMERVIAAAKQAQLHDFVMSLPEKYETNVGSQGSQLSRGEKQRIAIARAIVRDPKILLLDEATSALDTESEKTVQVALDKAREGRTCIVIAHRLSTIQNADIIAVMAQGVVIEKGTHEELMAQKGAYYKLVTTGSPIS

A word on the pIC50: it is the negative decadic logarithm of the IC50, by convention in mol/L. In the case of `C[C@@H](OC(=O)Nc1ccsc1-c1ccc(NC(=O)C2CCCCC2C(=O)O)cc1)c1ccccc1Cl` (stereo partly drawn) [Example 6, Cis-2-((4-(3-((((R)-1-(2-chlorophenyl)ethoxy)carbonyl)amino)thiophen-2-yl)phenyl)carbamoyl)cyclohexane-1-carboxylic acid], the pIC50 in data set [1] (setting [2]) is greater than 7.30. Same read-out and setting: the value for `C[C@@H](OC(=O)Nc1ccsc1-c1ccc(NC(=O)C2CCCCC2C(=O)O)cc1)c1ccccc1Cl` (single isomer, unassigned) [Example 8] was 6.22 to 6.60. One may read the inhibition as the share of the control response that was lost under treatment. The low end stands for little suppression, the high end for strong suppression. Turning to `Cc1nc(-c2cnn(C)c2NC(=O)O[C@H](C)c2ccccc2)ccc1NC(=O)[C@H]1CCCC[C@@H]1C(=O)O` [Example 43, (1S,2S)-2-((2-methyl-6-(1-methyl-5-((((R)-1-phenylethoxy)carbonyl)amino)-1H-pyrazol-4-yl)pyridin-3-yl)carbamoyl)cyclohexane-1-carboxylic acid], the pIC50 in data set [1] (setting [2]) was 6.60 to 7.30. Also, the inhibition at 10 min, 50 μM on BSEP was no more than 50%.

On to `Cc1noc(-c2ccc(NC(=O)[C@H]3CCCC[C@@H]3C(=O)O)cn2)c1NC(=O)OC(C)c1cccnc1F` (stereo partly drawn) [Example 17, (1S,2S)-2-((6-(4-(((1-(2-fluoropyridin-3-yl)ethoxy)carbonyl)amino)-3-methylisoxazol-5-yl)pyridin-3-yl)carbamoyl)cyclohexane-1-carboxylic acid], for which, in data set [1] (setting [2]), the pIC50 is 6.60 to 7.30. Also, the inhibition at 10 min, 50 μM at BSEP was no more than 50%. With `Cc1nc(-c2onc(C)c2NC(=O)O[C@H](C)c2cccnc2)ccc1NC(=O)[C@H]1CCCC[C@@H]1C(=O)O` [Example 15, (1S,2S)-2-((2-methyl-6-(3-methyl-4-((((R)-1-(pyridin-3-yl)ethoxy)carbonyl)amino)isoxazol-5-yl)pyridin-3-yl)carbamoyl)cyclohexane-1-carboxylic acid], the pIC50 in data set [1] (setting [2]) was 6.60 to 7.30. Besides, the inhibition at 10 min, 50 μM against BSEP was no more than 50%. The matching figures for `Cc1nc(-c2onc(C)c2NC(=O)O[C@H](C)c2cccnc2Cl)ccc1NC(=O)[C@H]1CCCC[C@@H]1C(=O)O` [Example 11, (1S,2S)-2-((6-(4-((((R)-1-(2-chloropyridin-3-yl)ethoxy)carbonyl)amino)-3-methylisoxazol-5-yl)-2-methylpyridin-3-yl)carbamoyl)cyclohexane-1-carboxylic acid]: 6.60 to 7.30 and no more than 50%. The matching figures for `Cc1nc(-c2onc(C)c2NC(=O)O[C@H](C)c2nccs2)ccc1NC(=O)[C@H]1CCCC[C@@H]1C(=O)O` [Example 22, (1S,2S)-2-((2-methyl-6-(3-methyl-4-((((R)-1-(thiazol-2-yl)ethoxy)carbonyl)amino)isoxazol-5-yl)pyridin-3-yl)carbamoyl)cyclohexane-1-carboxylic acid]: 6.22 to 6.60 and no more than 50%. The matching figures for `COc1ccccc1[C@@H](C)OC(=O)Nc1c(C)noc1-c1ccc(NC(=O)[C@H]2CCCC[C@@H]2C(=O)O)cn1` [Example 37, (1S,2S)-2-((6-(4-((((R)-1-(2-methoxyphenyl)ethoxy)carbonyl)amino)-3-methylisoxazol-5-yl)pyridin-3-yl)carbamoyl)cyclohexane-1-carboxylic acid]: 6.60 to 7.30 and no more than 50%.

`C[C@@H](OC(=O)Nc1c(-c2ccc(NC(=O)C3CCCCC3C(=O)O)cc2)cnn1C)c1ccccc1Cl` (single isomer, unassigned) [Example 4]: the pIC50 in data set [1] (setting [2]) was greater than 7.30. As to `Cc1nc(-c2nnn(C)c2NC(=O)O[C@H](C)c2ccccc2C(F)(F)F)ccc1NC(=O)[C@H]1CCCC[C@@H]1C(=O)O` [Example 45, (1S,2S)-2-((2-methyl-6-(1-methyl-5-((((R)-1-(2-(trifluoromethyl)phenyl)ethoxy)carbonyl)amino)-1H-1,2,3-triazol-4-yl)pyridin-3-yl)carbamoyl)cyclohexane-1-carboxylic acid], in data set [1] (setting [2]), the pIC50 was 6.60 to 7.30. This compound came in with an inhibition at 10 min, 50 μM at BSEP of no more than 50%. The matching figures for `Cc1nc(-c2nnn(C)c2NC(=O)O[C@H](C)c2ccccc2)ccc1NC(=O)[C@H]1CCCC[C@@H]1C(=O)O` [Example 44, (1S,2S)-2-((2-methyl-6-(1-methyl-5-((((R)-1-phenylethoxy)carbonyl)amino)-1H-1,2,3-triazol-4-yl)pyridin-3-yl)carbamoyl)cyclohexane-1-carboxylic acid]: greater than 7.30 and no more than 50%. For `Cc1nc(-c2onc(C)c2NC(=O)OC(C)c2cccnc2F)ccc1NC(=O)[C@H]1CCCC[C@@H]1C(=O)O` (single isomer, unassigned) [Example 20], the pIC50 in data set [1] (setting [2]) was 6.60 to 7.30. In addition, the inhibition at 10 min, 50 μM against BSEP is no more than 50%.

In the case of `Cc1nc(-c2onc(C)c2NC(=O)OC(C)c2cccnc2F)ccc1NC(=O)[C@H]1CCCC[C@@H]1C(=O)O` (stereo partly drawn) [Example 19, (1S,2S)-2-((6-(4-(((1-(2-fluoropyridin-3-yl)ethoxy)carbonyl)amino)-3-methylisoxazol-5-yl)-2-methylpyridin-3-yl)carbamoyl)cyclohexane-1-carboxylic acid], the negative-log IC50 (pIC50) in data set [1] (setting [2]) is 6.60 to 7.30. Regarding `Cc1noc(-c2ncc(NC(=O)[C@H]3CCCC[C@@H]3C(=O)O)cc2F)c1NC(=O)O[C@H](C)c1ccccc1Cl` [Example 31, (1S,2S)-2-((6-(4-((((R)-1-(2-chlorophenyl)ethoxy)carbonyl)amino)-3-methylisoxazol-5-yl)-5-fluoropyridin-3-yl)carbamoyl)cyclohexane-1-carboxylic acid], the pIC50 in data set [1] (setting [2]) is greater than 7.30. On BSEP, the inhibition at 10 min, 50 μM was no more than 50%. `Cc1nc(-c2onc(C)c2NC(=O)O[C@H](C)c2cccnc2)ccc1NC(=O)C1CCCCC1C(=O)O` (stereo partly drawn) [Example 33, Cis-2-((2-methyl-6-(3-methyl-4-((((R)-1-(pyridin-3-yl)ethoxy)carbonyl)amino)isoxazol-5-yl)pyridin-3-yl)carbamoyl)cyclohexane-1-carboxylic acid]: in data set [1] (setting [2]), the pIC50 was 6.22 to 6.60. Still for that read-out and setting: to `C[C@@H](OC(=O)Nc1ccsc1-c1ccc(NC(=O)[C@H]2CCCC[C@@H]2C(=O)O)cn1)c1ccccc1Cl` [Example 21, (1S,2S)-2-((6-(3-((((R)-1-(2-chlorophenyl)ethoxy)carbonyl)amino)thiophen-2-yl)pyridin-3-yl)carbamoyl)cyclohexane-1-carboxylic acid] belongs 6.22 to 6.60. On to `C[C@@H](OC(=O)Nc1c(-c2ccc(NC(=O)C3CCCCC3C(=O)O)cc2)cnn1C)c1ccccc1Cl` (single isomer, unassigned) [Example 5], for which, in data set [1] (setting [2]), the negative logarithm of the IC50 (pIC50) was 6.22 to 6.60. In the case of `Cc1noc(-c2ccc(NC(=O)C3CCCCC3C(=O)O)cc2)c1NC(=O)O[C@H](C)c1cccnc1` (stereo partly drawn) [comparative Example B, 2-((4-(3-methyl-4-((((R)-1-(pyridin-3-yl)ethoxy)carbonyl)amino)isoxazol-5-yl)phenyl)carbamoyl)cyclohexane-1-carboxylic acid, reference compound], in data set [1] (comparative compound, read-out: IC50 on receptor LPA1), the pIC50 is less than 6.00. As to `Cc1nc(-c2onc(C)c2NC(=O)O[C@H](C)c2ccccc2Cl)ccc1NC(=O)C1CCCCC1C(=O)O` (single isomer, unassigned) [Example 14], at BSEP, the “BSEP Inhibition at 50 μM” value is no more than 50%.
